Results as given in PMC11134391 (JACS Au, 2024).

Columns and labels:
HDAC6 [1] = biological target: T1, HDAC6 (Homo sapiens, UniProt Q9UBN7); experiment: HDAC inhibition assay; assay type: biochemical; conditions: for selectivity for HDAC6 over HDAC8 (between the two enzymes): from Ki values
T1 sequence (Q9UBN7 1-1215): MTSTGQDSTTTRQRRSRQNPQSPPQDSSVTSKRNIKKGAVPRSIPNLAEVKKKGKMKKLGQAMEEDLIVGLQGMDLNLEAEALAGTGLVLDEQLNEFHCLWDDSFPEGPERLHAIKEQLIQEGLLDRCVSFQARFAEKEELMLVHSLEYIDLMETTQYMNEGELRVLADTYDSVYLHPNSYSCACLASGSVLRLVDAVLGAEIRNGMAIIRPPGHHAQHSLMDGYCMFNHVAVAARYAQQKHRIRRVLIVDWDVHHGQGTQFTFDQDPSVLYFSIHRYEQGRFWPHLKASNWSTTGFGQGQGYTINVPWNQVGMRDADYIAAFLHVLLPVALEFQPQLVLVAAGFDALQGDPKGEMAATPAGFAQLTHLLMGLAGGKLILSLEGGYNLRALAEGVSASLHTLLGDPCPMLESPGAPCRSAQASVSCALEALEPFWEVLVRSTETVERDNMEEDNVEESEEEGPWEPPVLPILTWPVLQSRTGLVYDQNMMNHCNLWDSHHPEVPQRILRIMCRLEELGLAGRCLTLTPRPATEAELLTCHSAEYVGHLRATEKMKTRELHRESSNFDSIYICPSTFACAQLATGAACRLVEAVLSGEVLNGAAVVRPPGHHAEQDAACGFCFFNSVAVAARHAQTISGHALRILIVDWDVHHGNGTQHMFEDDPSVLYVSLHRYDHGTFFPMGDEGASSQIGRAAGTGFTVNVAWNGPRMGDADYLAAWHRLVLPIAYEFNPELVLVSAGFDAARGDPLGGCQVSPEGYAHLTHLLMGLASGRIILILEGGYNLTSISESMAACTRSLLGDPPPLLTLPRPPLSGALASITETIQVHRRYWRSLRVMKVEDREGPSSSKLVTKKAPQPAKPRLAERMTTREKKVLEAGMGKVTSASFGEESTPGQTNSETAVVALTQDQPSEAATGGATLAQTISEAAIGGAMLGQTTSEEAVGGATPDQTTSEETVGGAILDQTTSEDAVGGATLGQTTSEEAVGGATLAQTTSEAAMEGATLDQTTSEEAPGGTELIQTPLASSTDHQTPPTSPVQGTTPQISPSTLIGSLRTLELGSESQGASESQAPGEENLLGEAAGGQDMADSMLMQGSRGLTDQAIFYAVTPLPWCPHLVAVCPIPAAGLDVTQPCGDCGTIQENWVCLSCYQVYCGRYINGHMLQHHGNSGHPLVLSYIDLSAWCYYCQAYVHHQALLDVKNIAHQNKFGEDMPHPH

HDAC6 [2] = biological target: T1, HDAC6; experiment: HDAC inhibition assay with preincubation, HDAC6; assay type: biochemical; conditions: preincubation 0, 0.5, 1 or 2 h at 37 °C
[3] = test system: lysine acetylation (α-tubulin, H3K18, H3K27, and SMC3) in HEK293T cells; experiment: Protein acetylation assay; assay type: cell-based, human; conditions: 5 h, 1 or 10 μM, Western blot
HDAC8 [4] = biological target: T2, HDAC8 (Homo sapiens, UniProt Q9BY41); experiment: Cellular thermal shift assay; assay type: cell-based; conditions: HEK293T cells, 10 µM, 2 h
T2 sequence (Q9BY41 1-377): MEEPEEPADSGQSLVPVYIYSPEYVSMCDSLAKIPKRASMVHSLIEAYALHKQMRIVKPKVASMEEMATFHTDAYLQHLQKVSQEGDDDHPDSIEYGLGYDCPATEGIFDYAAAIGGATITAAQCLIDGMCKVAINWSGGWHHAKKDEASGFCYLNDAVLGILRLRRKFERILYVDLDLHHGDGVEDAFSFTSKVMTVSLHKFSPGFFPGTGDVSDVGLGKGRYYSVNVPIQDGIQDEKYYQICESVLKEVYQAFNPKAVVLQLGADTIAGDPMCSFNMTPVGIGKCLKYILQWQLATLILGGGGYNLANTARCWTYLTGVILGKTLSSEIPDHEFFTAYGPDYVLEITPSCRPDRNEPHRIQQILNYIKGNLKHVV

HDAC8 [5] = biological target: T2, HDAC8; experiment: HDAC inhibition assay; assay type: biochemical
HDAC11 = biological target: T3, HDAC11 (Homo sapiens, UniProt Q96DB2); experiment: HDAC inhibition assay with preincubation, HDAC11; assay type: biochemical; conditions: preincubation 0, 0.5, 1 or 2 h at 37 °C
T3 sequence (Q96DB2 1-347): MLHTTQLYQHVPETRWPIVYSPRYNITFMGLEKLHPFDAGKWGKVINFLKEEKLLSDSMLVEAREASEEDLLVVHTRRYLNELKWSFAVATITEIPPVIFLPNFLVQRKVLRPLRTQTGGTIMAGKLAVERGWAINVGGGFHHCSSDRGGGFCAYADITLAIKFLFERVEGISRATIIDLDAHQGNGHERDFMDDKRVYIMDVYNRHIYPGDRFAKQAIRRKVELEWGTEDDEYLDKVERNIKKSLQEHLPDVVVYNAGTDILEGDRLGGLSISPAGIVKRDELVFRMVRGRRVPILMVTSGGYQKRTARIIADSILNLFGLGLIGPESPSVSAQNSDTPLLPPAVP

Row | Ki (HDAC6 [1]) | selectivity for HDAC6 over HDAC8 (between the two enzymes) (HDAC6 [1]) | thermal shift of HDAC8 relative to DMSO control (HDAC8 [4]) | Ki (HDAC8 [5]) | SMILES | change of IC50 upon preincubation with HDAC6 (HDAC6 [2]) | acetylation of α-tubulin compared to DMSO control [3] | change of IC50 upon preincubation with HDAC11 (HDAC11)
1 | 0.014 µM | ~20 fold | no shift |  | O=C(NO)c1cncc(OS(=O)(=O)Oc2ccc3ccccc3c2)c1 [E24] | did not observe any decrease in IC50 value upon preincubation | significant upregulation | 
2 |  |  |  | 0.022 µM | COc1ccc(OS(=O)(=O)Oc2cccc(C(=O)NO)c2)cc1OC [A17] |  |  | 
3 |  |  |  |  | Cc1c(OS(=O)(=O)Oc2ccc(Oc3ccccc3)cc2)cccc1C(=O)NO [D21] |  |  | did not observe any decrease in IC50 value upon preincubation
4 |  | 20 fold |  |  | O=C(NO)c1cc(F)cc(OS(=O)(=O)Oc2ccccc2)c1 [C1] | did not observe any decrease in IC50 value upon preincubation | significant upregulation | 
